What is called half-life is the time in which the quantity being followed falls by half.

Data set [1] can be described thus: Solubility in water, pH of solution and stability of benzylidene ascorbic acid compounds. The settings on record: for Stability (in words): free acid compared with mono-basic salt. Type of data set: physicochemical. An excerpt: The structural formula is shown below. The structure has been confirmed by IR and NMR. […] The pH of the solution is 6.6. [drawing 8] The beneficial properties of the drug composition according to the present invention are illustrated below in connection with a series of experiments which have been performed.

The test system of data set [2] is NHIK 3025 cells. Description: Cell survival (colony formation) after 24 hr treatment. The settings on record: Homo sapiens, NHIK3025, 24 h. Type of data set: cell-based. An excerpt: (§1) Human cells of the established line NHIK 3025, originating from a cervical carcinoma in situ (Nordbye, K., and Oftebro, R. Exp. Cell Res., 58: 458, 1969), Oftebro, R., and Nordbye, K., Exp. Cell Res., 58: 459-460, 1969) were cultivated in Medium E2a (Puck, T.T. et al., J. Exp. Med., 106:145-165, 1957) supplemented with 20% human (prepared at the laboratory) and 10% horse serum (Grand Island Biological Co.). The cells are routinely grown as monolayers in tissue culture flasks.
(§2) The cells were kept in continuous exponential growth by frequent reculturing, i.e., every second and third day, and synchronized cell populations with a high degree of synchrony were obtained by repeated selection of mitotic cells (Pettersen, E. O. et al, Cell Tissue Kinet., 10: 511-522, 1977). During the synchronization procedure, the cells were kept in Medium E2a, and the whole experiment took place in a walk-in incubator at 37° C. Under growth conditions as used here, the NHIK 3025 cells have a medium cell-cycle time of ~18 hr, with medium G1, S1 and G2 durations of ~7, ~8, and ~2.5 hr, respectively.
For measurement of cell survival, appropriate numbers of cells were seeded in plastic Petri dishes (.phi.=5 cm). The number of cells seeded into each dish was adjusted such that the number of surviving cells would be approximately 150 per dish. While exponentially growing (asynchronous) cells were trypsinized before seeding, synchronized cells were seeded immediately after selection. After about 2 hr, the cells had attached to the bottom of the dishes, and the treatment was started by replacing the medium with medium containing the appropriate drug concentration. After the desired time of treatment, the drug-containing medium was removed, and fresh medium was added. The dishes were rinsed once with the same medium as was to be added on addition or removal of drug. After 10 to 12 days at 37° C. in a CO2 incubator, the cells were fixed in ethanol and stained with methylene blue before the colonies were counted.
The cytotoxic effect of benzaldehyde and of deuterobenzaldehyde-d1 was tested on asynchronous, exponentially growing NHIK 3025 cells by counting the number of cells able to form colonies after 24 hr treatment in Petri dishes. In Table 1 the results represent 2 different, independent experiments where the numbers give the mean fraction of surviving cells from 10 parallel dishes (± standard error).
Fraction of cells surviving 24 hr treatment with benzaldehyde or deuterobenzaldehyde - d1 in Petri dishes. (The values represent the mean±standard error from 10 different dishes.)

Data set [3] has as its system NHIK 3025 cells. Description: Protein synthesis rate ((3H)valine incorporation). Type of data set: cell-based, human. The settings on record: 3.2 mM.
Excerpt: as §1, §2
The rate of protein synthesis was calculated as described previously (Ronning, O. W. et al., J. Cell Physiol., 107: 47-57, 1981). Briefly, cellular protein was labeled to saturation during a 2-day preincubation with (^14 C)valine of constant specific radioactivity (0.5 Ci/mol) prior to the experiment. This was achieved by using a high concentration of valine so that the dilution of (^14 C)valine by intracellular valine and by proteolytically generated valine will be negligible (Ronning, O. W., et al. Exp. Cell Res. 123: 63-72, 1979), thus keeping the specific radioactivity at a constant level. The rate of protein synthesis was calculated from the incorporation of (3H)valine of constant specific activity. The incorporation measurements were related to the total of (^14 C) radioactivity in protein at the beginning of the respective measurement periods and expressed as the percentage per hr (Ronning, O. W. et al, J. Cell, Physiol. 107: 47-57, 1981).
[…] The last measurements were done to test the reversibility of the drugs. Drug concentration: 3.2 mM.

Data set [4] in a line: Concentration of BG or BG-d1 in blood samples after iv injection (HPLC). Type of data set: in vivo, male Wistar rats. The following applies: rat, iv. The protocol:
Measurement of concentration of 4,6-O-benzylidene-D-glucose (BG) or 4,6-O-deuterobenzylidene-d1 -D-glucose (BG-d1) in blood samples (Table 5).
(§3) Blood samples were taken from male Wistar rats immediately before and at several intervals after intravenous injection of BG or BG-d1. Blood serum was separated by centrifugation. Equal amounts of blood serum and HPLC-grade acetonitrile were mixed and centrifuged at 13,000 rpm (15,000×g) for 5 minutes. Samples were then analyzed for BG or BG-d1 content by High Performance Liquid Chromatography (HPLC). Samples were placed in an autosampler programmed for replicate injections of […] each onto a 4.6×250 mm LC18 HPLC column. The column was eluted with 45% aqueous methanol delivered at 1 ml/min. BG or BG-d1 were detected by using a spectrofluorometer set at excitation and emission wavelengths of 255 and 283 nm, respectively. The slit width used was 10 nm. Quantitation of the amount of BG or BG-d1 in serum samples was performed with an electronic integrator calibrated with standard solutions of BG or BG-d1 in the mobile phase (Pettersen et al., Anticancer Res., 6; 147-152, 1986).
We have compared the metabolism in rats of BG as well as of deuterated BG (BG-d1). In Table 5 the serum concentration of BG or BG-d1 is shown at various time points after a single iv injection of each drug, respectively.

The nature of data set [5]: BG or BG-d1 metabolites in blood samples after iv injection (HPLC peak height). Type of data set: in vivo, male Wistar rats. The settings on record: rat, iv, BG versus BG-d1. The method, then: as §3
Measurement of BG or BG-d1 metabolites in blood samples (Table 6)
HPLC of blood samples was performed as indicated above. Relative amounts of BG- or BG-d1 -metabolite were determined by peak height analysis. The peak height from the electronic integrator (in microvolts) of samples taken 30 minutes after iv injection of BG, or 60 minutes after iv injection of BG-d1 were normalized to 1. All other metabolite peaks were compared with these values.
At the same time as BG or BG-d1 metabolism was being determined, a separate metabolite peak appeared in HPLC chromatograms. The increase in BG- and BG-d1 -metabolite and subsequent clearance was measured.

The test system of data set [6] is NHIK 3025 cells. Description: Duration of cell cycle-time of synchronized cells. Type of data set: cell-based, human. The following applies: 8 hr treatment.
Excerpt: as §1, §2
(§4) For detection of the drug effects on cell-cycle kinetics, the same methods were used as described previously (Lindmo, T., and Pettersen, E. O., Cell Tissue Kinet., 12: 43-57, 1979), (Pettersen, E. O. et al, Eur. J. Cancer Clin. Oncol., 19: 507-514; 1983), (Ronning, O.W. et al., J. Cell. Physiol., 109: 411-419, 1981). Briefly, the selected mitotic cells were seeded into 8 tissue culture flasks (25 sq cm) 5000 cells per flask. The cells divided within 1 hr and attached as doublets to the bottom of the flasks. […] Analyses of durations of mitosis were performed from these observations (Table 4).
This is shown by the data in Table 3, where we have used synchronized cells treated over an 8 hr period starting 2 hr after mitotic selection, i.e. when the cells were in early Gl.

In data set [7] the test system is NHIK 3025 cells. Description: Duration of mitosis of synchronized cells. Format: cell-based, human. The settings on record: 3.2 mM during mitosis.
Excerpt: as §1, §2, §4
This effect is probably directly related to the aldehyde group (Pettersen et al. Cancer Res. 45: 2085-2091, 1985). If the deuterated aldehyde group induces different biological effects from the undeuterated one it is therefore good reason to expect this to be expressed as a difference in effect on cells in mitosis. In Table 4 results are shown on prolongation of mitosis of synchronized cells treated with benzaldehyde or deuterobenzaldehyde-d1 during mitosis. The numbers in the table represent the percentage of the cells having a duration of mitosis below 1 hr (which is normal for untreated cells) or above the number of hours indicated on top of each column.

Where [8] appears, read: read-out: Cell survival of cells treated for 24 hr.
Where [9] appears, read: read-out: Fraction of cells surviving 24 hr treatment.

Structures are written as SMILES. Entries after “also recorded” stand apart in the source; their conditions may differ. Where a name gives a salt, the structure may show the parent alone. Read-outs that look alike come from different tables or passages of the source.

For the compound `[2H]C1(c2ccccc2)OC[C@@H]([C@H]2OC(=O)C(O)=C2O)O1` (stereo partly drawn) [deutero 5,6-O-benzylidene ascorbic acid, deutero 5,6-O-benzylidene-L-ascorbic acid], in data set [1], the “Stability (in words)” value is “instability”.
As to `[2H]C1(c2ccccc2)OC[C@H]2OC(O)[C@H](O)[C@@H](O)[C@@H]2O1` (stereo partly drawn) [BG-d1, 4,6-O-deuterobenzylidene-d1 -D-glucose], in the data set with NHIK 3025 cells [2] (setting [8]), the viability at 6400 µM worked out at 33 ± 7%. Also, the viability at 12800 µM in the data set with NHIK 3025 cells [2] (setting [8]) was determined as 0.8 ± 0.3%. In addition, the Protein synthesis with NHIK 3025 cells [3] (asynchronous cells, 3 hr treatment, pulse 0-1 hr, during treatment, Table 8, control 5.7 ± 0.5) is 3.0 ± 0.3 %/hr; in the data set with NHIK 3025 cells [3] (asynchronous cells, 3 hr treatment, pulse 2-3 hr, during treatment, Table 8, control 5.7 ± 0.5) it was 3.4 ± 0.3 %/hr; with NHIK 3025 cells [3] (synchronized cells, 22 hr treatment, pulse 21-22 hr, during treatment, Table 8, control 5.3 ± 0.2) it was 4.6 ± 0.2 %/hr; in the data set on NHIK 3025 cells [3] (synchronized cells, 22 hr treatment, pulse 23-24 hr, after treatment, Table 8, control 5.3 ± 0.2), 5.4 ± 0.1 %/hr. Further, in data set [4] (compared with BG), the “Metabolism and clearance from serum (in words)” value is “slower than that of the undeuterated compound; also recorded: clearly slower metabolism and clearance from serum”. The concentration at 0 h in data set [4] (serum, 0 minutes (estimated), read-out: Amount of unmetabolized drug in blood samples) is 345 µM. The concentration at 2 min in data set [4] (serum, 2 minutes, read-out: Amount of unmetabolized drug in blood samples) was 220 ± 20 µM. In addition, in data set [4] (serum, 5 minutes, read-out: Amount of unmetabolized drug in blood samples), the concentration at 5 min was 160 ± 20 µM. Besides, the concentration at 10 min in data set [4] (serum, 10 minutes, read-out: Amount of unmetabolized drug in blood samples) turned out to be 140 ± 20 µM. Besides, the concentration at 0.25 h in data set [4] (serum, 15 minutes, read-out: Amount of unmetabolized drug in blood samples) amounted to 100 ± 20 µM. Further, the concentration at 20 min in data set [4] (serum, 20 minutes, read-out: Amount of unmetabolized drug in blood samples) turned out to be 97 ± 3 µM. Also, in data set [4] (serum, 30 minutes, read-out: Amount of unmetabolized drug in blood samples), the concentration at 0.5 h was found to be 66 ± 15 µM. Moreover, in data set [4] (serum, 60 minutes, N.F. = Not Found, read-out: Amount of unmetabolized drug in blood samples), the concentration at 1 h turned out to be 10 ± 5 µM. Further, the half-life in data set [4] (serum, read-out: half-life in vivo) is approximately 15 min. Moreover, the “Clearance (or further metabolization) of metabolite (in words)” value in data set [5] is “slower clearance kinetics than that formed from BG”.
Consider `[2H]C1(c2ccccc2)OC[C@@H]([C@H]2OC(=O)C(O)=C2O)O1` (stereo partly drawn) [mono-sodium salt of deutero 5,6-O-benzylidene-L-ascorbic aci] [mono-sodium salt of deutero 5,6-O-benzylidene-L-ascorbic acid], for which the “pH of the solution” value in data set [1] (aqueous solution of mono-sodium salt) is 6.6. In addition, in data set [1], the “Stability (in words)” value is “much more stable”. Further, in data set [1] (water), the Solubility in water entry was “readily soluble in water”.
For `[2H]C(=O)c1ccccc1` [Deuterobenzaldehyde-d1], the viability at 3200 µM in the data set on NHIK 3025 cells [2] (setting [9]) was 68 ± 14%. In the data set on NHIK 3025 cells [2] (setting [9]), the viability at 12800 µM stood at 0.56 ± 0.2%. Also, the Protein synthesis in the data set on NHIK 3025 cells [3] (4 hr treatment, pulse 0-1, during treatment, Table 2, control 6.8 ± 0.9) is 3.6 ± 0.3 %/hr; with NHIK 3025 cells [3] (4 hr treatment, pulse 4-5, after treatment, Table 2, control 6.8 ± 0.9), 4.7 ± 0.3 %/hr; in the data set with NHIK 3025 cells [3] (4 hr treatment, pulse 5-6, after treatment, Table 2, control 6.8 ± 0.9) it was 5.8 ± 0.3 %/hr. Moreover, the Prolongation is 15.2% with NHIK 3025 cells [6] (2 mM, versus control 1) and 108.3% in the data set on NHIK 3025 cells [6] (2.5 mM, versus control 2). In addition, the “Duration of the part of the cell cycle starting 2 hr after selection” value in the data set on NHIK 3025 cells [6] (2 mM, control 1 16.5) is given as 19.0; in the data set with NHIK 3025 cells [6] (2.5 mM, control 2 16.8) it was 35.0. In the data set with NHIK 3025 cells [7], the “Percentage of cells with duration of mitosis >4 h” value is 70%. Moreover, the “Percentage of cells with duration of mitosis >5 h” value in the data set on NHIK 3025 cells [7] is listed as 69%. For the same compound, the “Percentage of cells with duration of mitosis >6 h” value in the data set with NHIK 3025 cells [7] turned out to be 64%. Besides, the “Percentage of cells with duration of mitosis >3 h” value with NHIK 3025 cells [7] (control 2%) was 74%. Besides, the “Percentage of cells with duration of mitosis >2 h” value in the data set on NHIK 3025 cells [7] (control 4%) is reported as 81%. For the same compound, in the data set on NHIK 3025 cells [7] (control 17%), the “Percentage of cells with duration of mitosis >1 h” value is reported as 87%. The “Percentage of cells with duration of mitosis <1 h” value in the data set on NHIK 3025 cells [7] (control 83%) was 13%.
